In general, EC90 refers to the concentration at which the effect reaches the 90% level.

One assay has as its system HCV replicon 2b. The assay is described as follows: Cell-based HCV replicon assay (TaqMan), genotype 2b replicon. Conditions: EC90 = concentration for ΔCT=3.2 over baseline. On the technique in general: Replicon systems follow genome replication, usually without infectious particles.
In the next assay the test system is HCV replicon 1a Y93H. The assay is described as follows: Cell-based HCV replicon assay (TaqMan), genotype 1a Y93H mutant replicon. The note with it: EC90 = concentration for ΔCT=3.2 over baseline.
A further assay deals with HCV replicon 1a. As to the kind of experiment: Cell-based HCV replicon assay (TaqMan), genotype 1a replicon. The note with it: HCV 1a replicon cells, replicon RNA by TaqMan on day 3, EC90 = concentration for ΔCT=3.2 over baseline.
The next assay relates to HCV replicon 1b. As to the kind of experiment: Cell-based HCV replicon assay (TaqMan), genotype 1b replicon. The note with it: HCV 1b replicon cells, replicon RNA by TaqMan on day 3, EC90 = concentration for ΔCT=3.2 over baseline.
[1] abbreviates: Hepatitis C virus, 72 h, read-out: 2b EC90, HCV 2b replicon cells, replicon RNA by TaqMan on day 3.
Where [2] appears, read: Hepatitis C virus, 72 h, read-out: 1a Y93H EC90, HCV 1a Y93H mutant replicon cells, replicon RNA by TaqMan on day 3.

SMILES strings stand for the structures. Like-named read-outs stand apart in the source and are kept apart here. Bounds are passed on as bounds.

Consider `COC(=O)N[C@H](C(=O)N1C[Si](C)(C)C[C@H]1c1nc(Cl)c(-c2ccc(-c3ccc(-c4[nH]c([C@@H]5C[C@H]6C[C@H]6N5C(=O)[C@@H](NC(=O)OC)C5CC5)nc4Cl)cc3)cc2)[nH]1)C1CC1` [Compound 53], for which the EC90 in the assay on HCV replicon 2b (setting [1]) stood at 11.3 nM; in the assay with HCV replicon 1a Y93H (setting [2]), 26.8 nM; in the assay with HCV replicon 1a (Hepatitis C virus, 72 h), 0.01 nM; in the assay on HCV replicon 1b (Hepatitis C virus, 72 h), 0.01 nM.

For the molecule `CC[C@H](C)[C@H](NC(=O)OC)C(=O)N1CCC[C@H]1c1ncc(-c2ccc(-c3ccc(-c4cnc([C@@H]5C[Si](C)(C)CN5C(=O)[C@@H](NC(=O)OC)[C@@H](C)CC)[nH]4)cc3)cc2)[nH]1` [Compound 30], the 90% effect concentration (EC90) in the assay on HCV replicon 2b (read-out: 2b EC90, HCV 2b replicon cells, replicon RNA by TaqMan on day 3) was determined as 248 nM; in the assay on HCV replicon 1a Y93H (read-out: 1a Y93H EC90, HCV 1a Y93H mutant replicon cells, replicon RNA by TaqMan on day 3) it was 610 nM; with HCV replicon 1a it was 1.33 nM; with HCV replicon 1b, 7.63 nM.

Turning to `COC(=O)N[C@H](C(=O)N1CCC[C@@H]1c1ncc(-c2ccc(-c3ccc(-c4cnc([C@H]5C[Si](C)(C)CN5C(=O)[C@@H](NC(=O)OC)C5CC5)[nH]4)cc3)cc2)[nH]1)C1CC1` [Compound 22], the 90% effect concentration (EC90) worked out at 1000 nM with HCV replicon 2b (setting [1]); 1000 nM with HCV replicon 1a Y93H (setting [2]); 1000 nM with HCV replicon 1a (Hepatitis C virus, 72 h); 1000 nM with HCV replicon 1b (Hepatitis C virus, 72 h).

Take `COC(=O)N[C@H](C(=O)N1C[Si](C)(C)C[C@H]1c1ncc(-c2ccc(-c3ccc(-c4ncc([C@@H]5C[C@H]6C[C@H]6N5C(=O)[C@@H](NC(=O)OC)C(C)C)[nH]4)cc3)cc2)[nH]1)C(C)C` [Compound 69]: the concentration for an effect of 90% (EC90) in the assay with HCV replicon 2b (setting [1]) is 371 nM; in the assay on HCV replicon 1a Y93H (setting [2]), over 100 nM; in the assay with HCV replicon 1a (Hepatitis C virus, 72 h) it was 0.84 nM; with HCV replicon 1b (Hepatitis C virus, 72 h), 0.019 nM.

As to `COC(=O)N[C@H](C(=O)N1C[C@H](F)C[C@H]1c1ncc(-c2ccc(C#Cc3ccc(-c4cnc([C@@H]5C[Si](C)(C)CN5C(=O)[C@@H](NC(=O)OC)C(C)OC)[nH]4)cc3)cc2)[nH]1)C(C)C` (stereo partly drawn) [Compound 59], the EC90 in the assay on HCV replicon 2b (setting [1]) was over 100 nM; in the assay with HCV replicon 1a Y93H (setting [2]) it was over 100 nM; with HCV replicon 1a (Hepatitis C virus, 72 h), over 1 nM; with HCV replicon 1b (Hepatitis C virus, 72 h) it was 0.02 nM.

Consider `COC(=O)N[C@H](C(=O)N1C[Si](C)(C)C[C@H]1c1nc(Cl)c(-c2ccc(-c3ccc(-c4[nH]c([C@@H]5C[C@H]6C[C@H]6N5C(=O)[C@@H](NC(=O)OC)C(C)C)nc4F)cc3)cc2)[nH]1)C(C)C` [Compound 45], for which the EC90 was determined as 66 nM with HCV replicon 2b (setting [1]); 144 nM in the assay with HCV replicon 1a Y93H (setting [2]); 0.13 nM with HCV replicon 1a (Hepatitis C virus, 72 h); 0.017 nM with HCV replicon 1b (Hepatitis C virus, 72 h).

For the origin of these results see US20140378416A1, “SILYL-CONTAINING HETEROCYCLIC COMPOUNDS AND METHODS OF USE THEREOF FOR THE TREATMENT OF VIRAL DISEASES” (priority 2011, published 2014).
